Reference: patent US20220298213A1, “IN VIVO ENGINEERED CEREBLON PROTEIN” (Vividion Therapeutics, Inc., priority 2018, published 2022)
Like-named read-outs stand apart in the source and are kept apart here.

How the values were obtained:
Type in all cases: binding
[1] = molecular target: T1, CRBN Cys219 (Homo sapiens, UniProt Q96SW2); experiment: Inhibition of iodoacetamide probe labeling of CRBN cysteines, cell lysate (Table 3A); conditions: read-out: % inhibition of iodoacetamide probe labeling, Cys219
T1 construct: endogenous in cells
T1 sequence (Q96SW2 whole entry): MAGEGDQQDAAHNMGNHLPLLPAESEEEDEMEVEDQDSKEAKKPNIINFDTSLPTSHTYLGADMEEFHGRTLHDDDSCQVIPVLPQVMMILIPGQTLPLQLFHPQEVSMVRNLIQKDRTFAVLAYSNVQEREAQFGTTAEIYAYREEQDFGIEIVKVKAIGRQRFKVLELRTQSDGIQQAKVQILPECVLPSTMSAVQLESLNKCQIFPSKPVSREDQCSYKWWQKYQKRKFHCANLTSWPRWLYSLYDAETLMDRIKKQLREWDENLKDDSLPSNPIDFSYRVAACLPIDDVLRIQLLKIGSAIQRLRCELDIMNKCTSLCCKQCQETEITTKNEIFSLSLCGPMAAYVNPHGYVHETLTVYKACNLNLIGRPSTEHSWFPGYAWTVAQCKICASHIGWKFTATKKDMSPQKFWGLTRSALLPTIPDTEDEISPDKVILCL
Experimental: (§1) “X@Y” means that x % inhibition of iodoacetamide probe labeling was observed by treatment of cell lysate with the give compound in each row of the table for 1 h at a concentration of y micromolar. There was consistently high inhibition at C318 in addition to C287, which can be attributed to an allosteric inhibition.

[2] = molecular target: T2, CRBN Cys287 (Homo sapiens, UniProt Q96SW2); experiment: as above
T2 construct: endogenous in cells
T2 sequence (Q96SW2 whole entry): as above
Experimental: as §1

[3] = molecular target: T3, CRBN Cys234 (Homo sapiens, UniProt Q96SW2); experiment: as above; conditions: read-out: % inhibition of iodoacetamide probe labeling, Cys234
T3 construct: endogenous in cells
T3 sequence (Q96SW2 whole entry): as above
Experimental: as §1

[4] = molecular target: T4, CRBN Cys318 (Homo sapiens, UniProt Q96SW2); experiment: as above
T4 construct: endogenous in cells
T4 sequence (Q96SW2 whole entry): as above
Experimental: as §1

[5] = molecular target: T5, CRBN Cys343 (Homo sapiens, UniProt Q96SW2); experiment: as above; conditions: read-out: % inhibition of iodoacetamide probe labeling, Cys343
T5 construct: endogenous in cells
T5 sequence (Q96SW2 whole entry): as above
Experimental: as §1

[6] = molecular target: T6, CRBN Cys205 (Homo sapiens, UniProt Q96SW2); experiment: as above; conditions: read-out: % inhibition of iodoacetamide probe labeling, Cys205
T6 construct: endogenous in cells
T6 sequence (Q96SW2 whole entry): as above
Experimental: as §1

[7] = molecular target: T7, TEC_449 (Homo sapiens, UniProt P42680); experiment: Probe labeling at native and denatured states after pretreatment (Table 2); conditions: screening concentration; for inhibition of probe labeling, TEC_449, Den.: denatured state; for inhibition of probe labeling, TEC_449, Nat.: native state
T7 construct: In each the cell lysate was pretreated with compound; endogenous in cells
T7 sequence (P42680 1-631): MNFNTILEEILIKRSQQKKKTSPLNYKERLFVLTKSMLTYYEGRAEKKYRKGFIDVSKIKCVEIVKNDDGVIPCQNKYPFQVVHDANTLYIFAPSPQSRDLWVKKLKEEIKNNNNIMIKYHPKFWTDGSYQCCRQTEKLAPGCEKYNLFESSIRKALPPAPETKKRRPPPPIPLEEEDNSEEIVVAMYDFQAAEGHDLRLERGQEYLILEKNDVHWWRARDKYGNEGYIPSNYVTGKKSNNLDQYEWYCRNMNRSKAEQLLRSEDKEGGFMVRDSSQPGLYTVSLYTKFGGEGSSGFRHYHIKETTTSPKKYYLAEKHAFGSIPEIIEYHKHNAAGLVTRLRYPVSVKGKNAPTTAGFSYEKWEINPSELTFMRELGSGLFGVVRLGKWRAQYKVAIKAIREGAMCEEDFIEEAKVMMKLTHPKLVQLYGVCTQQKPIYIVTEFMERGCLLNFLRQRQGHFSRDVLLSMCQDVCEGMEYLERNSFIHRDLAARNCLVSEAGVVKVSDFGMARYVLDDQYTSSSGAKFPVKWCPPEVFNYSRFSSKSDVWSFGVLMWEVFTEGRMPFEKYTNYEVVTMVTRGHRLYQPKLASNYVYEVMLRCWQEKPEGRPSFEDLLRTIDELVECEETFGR

[8] = molecular target: T8, BTK_481 (Homo sapiens, UniProt Q06187); experiment: as above; conditions: screening concentration; for inhibition of probe labeling, BTK_481, Den.: denatured state; for inhibition of probe labeling, BTK_481, Nat.: native state
T8 construct: In each the cell lysate was pretreated with compound; endogenous in cells
T8 sequence (Q06187 whole entry): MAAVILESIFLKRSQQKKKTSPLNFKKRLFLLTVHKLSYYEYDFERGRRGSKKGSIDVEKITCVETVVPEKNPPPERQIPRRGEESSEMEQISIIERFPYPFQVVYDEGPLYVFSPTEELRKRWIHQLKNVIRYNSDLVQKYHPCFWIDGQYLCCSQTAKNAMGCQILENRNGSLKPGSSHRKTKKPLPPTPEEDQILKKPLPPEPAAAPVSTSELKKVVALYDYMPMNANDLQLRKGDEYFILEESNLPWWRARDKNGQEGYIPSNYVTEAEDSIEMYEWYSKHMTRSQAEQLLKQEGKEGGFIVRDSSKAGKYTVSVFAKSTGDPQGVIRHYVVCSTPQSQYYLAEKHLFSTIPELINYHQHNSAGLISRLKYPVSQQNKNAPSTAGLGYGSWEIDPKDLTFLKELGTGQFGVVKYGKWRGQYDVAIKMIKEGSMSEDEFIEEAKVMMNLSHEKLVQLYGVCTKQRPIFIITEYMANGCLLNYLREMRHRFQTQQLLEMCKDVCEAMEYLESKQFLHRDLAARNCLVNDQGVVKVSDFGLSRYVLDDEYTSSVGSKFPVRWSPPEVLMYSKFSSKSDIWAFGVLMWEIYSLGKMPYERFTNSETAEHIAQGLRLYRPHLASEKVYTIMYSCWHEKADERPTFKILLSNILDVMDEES

[9] = molecular target: CRBN-287 (Homo sapiens, UniProt Q96SW2); experiment: as above; parameters: endogenous in cells; host or cells: cell lysate; conditions: for inhibition of probe labeling, CRBN_287, Nat.: native state, cell lysate pretreated
CRBN-287, sequence (Q96SW2 whole entry): as the sequence (Q96SW2 whole entry) above
Experimental: (§2) To determine whether the co-inhibition of C287 and C318 was due to a direct or indirect mechanism, CRBN was pretreated with various Michael acceptor compounds and then tested for probe labeling in its native and denatured states.
(§3) In each the cell lysate was pretreated with compound, for native state data the probe was immediately added and for denatured data the probe was added after an additional step of denaturation (schematic shown in FIG. 4).

[10] = molecular target: CRBN-318 (Homo sapiens, UniProt Q96SW2); experiment: as above; parameters: endogenous in cells; host or cells: cell lysate; conditions: for inhibition of probe labeling, CRBN_318, Nat.: native state, cell lysate pretreated
CRBN-318, sequence (Q96SW2 whole entry): as above
Experimental: as §2, §3

[11] = molecular target: T9, CRBN_326 (Homo sapiens, UniProt Q96SW2); experiment: as above
T9 construct: endogenous in cells; host or cells: cell lysate
T9 sequence (Q96SW2 whole entry): as above
Experimental: as §2, §3

[12] = molecular target: T10, CRBN_205 (Homo sapiens, UniProt Q96SW2); experiment: as above
T10 construct: endogenous in cells; host or cells: cell lysate
T10 sequence (Q96SW2 whole entry): as above
Experimental: as §2, §3

[13] = molecular target: T11, CRBN_441 (Homo sapiens, UniProt Q96SW2); experiment: as above
T11 construct: endogenous in cells; host or cells: cell lysate
T11 sequence (Q96SW2 whole entry): as above
Experimental: as §2, §3

[14] = molecular target: T12, CRBN_219 (Homo sapiens, UniProt Q96SW2); experiment: as above
T12 construct: endogenous in cells; host or cells: cell lysate
T12 sequence (Q96SW2 whole entry): as above
Experimental: as §2, §3

[15] = molecular target: T13, CRBN_322 (Homo sapiens, UniProt Q96SW2); experiment: as above
T13 construct: endogenous in cells; host or cells: cell lysate
T13 sequence (Q96SW2 whole entry): as above
Experimental: as §2, §3

[16] = molecular target: T14, CRBN_234 (Homo sapiens, UniProt Q96SW2); experiment: as above
T14 construct: endogenous in cells; host or cells: cell lysate
T14 sequence (Q96SW2 whole entry): as above
Experimental: as §2, §3

[17] = molecular target: T15, CRBN_188 (Homo sapiens, UniProt Q96SW2); experiment: as above
T15 construct: endogenous in cells; host or cells: cell lysate
T15 sequence (Q96SW2 whole entry): as above
Experimental: as §2, §3

[18] = molecular target: T16, CRBN_310 (Homo sapiens, UniProt Q96SW2); experiment: as above
T16 construct: endogenous in cells; host or cells: cell lysate
T16 sequence (Q96SW2 whole entry): as above
Experimental: as §2, §3

[19] = molecular target: T17, CRBN_343 (Homo sapiens, UniProt Q96SW2); experiment: as above
T17 construct: endogenous in cells; host or cells: cell lysate
T17 sequence (Q96SW2 whole entry): as above
Experimental: as §2, §3

[20] = 0.8 micromolar, cell lysate, 1 h
[21] = 20 micromolar, cell lysate, 1 h
[22] = read-out: % inhibition of iodoacetamide probe labeling, Cys287
[23] = denatured state, probe added after denaturation, screening concentration
[24] = denatured state, screening concentration
[25] = native state, screening concentration

inhibition of probe labeling, TEC_449, Den. [7] [%] | inhibition of probe labeling, TEC_449, Nat. [7] [%] | inhibition of probe labeling, BTK_481, Den. [8] [%] | inhibition of probe labeling, BTK_481, Nat. [8] [%] | inhibition of probe labeling, CRBN_287, Den. [9, 23] [%] | inhibition of probe labeling, CRBN_287, Nat. ([9]; screening concentration) [%] | inhibition of probe labeling, CRBN_318, Den. [10, 23] [%] | inhibition of probe labeling, CRBN_318, Nat. ([10]; screening concentration) [%] | inhibition of probe labeling, CRBN_326, Den. [11, 24] [%] | inhibition of probe labeling, CRBN_205, Den. [12, 24] [%] | inhibition of probe labeling, CRBN_205, Nat. [12, 25] [%] | inhibition of probe labeling, CRBN_441, Den. [13, 24] [%] | inhibition of probe labeling, CRBN_219, Den. [14, 24] [%] | inhibition of probe labeling, CRBN_219, Nat. [14, 25] [%] | inhibition of probe labeling, CRBN_322, Den. [15, 24] [%] | inhibition of probe labeling, CRBN_322, Nat. [15, 25] [%] | inhibition of probe labeling, CRBN_234, Den. [16, 24] [%] | inhibition of probe labeling, CRBN_234, Nat. [16, 25] [%] | inhibition of probe labeling, CRBN_188, Den. [17, 24] [%] | inhibition of probe labeling, CRBN_188, Nat. [17, 25] [%] | other results | SMILES
 |  |  |  |  |  |  |  |  |  |  |  |  |  |  |  |  |  |  |  | inhibition at 100 µM [1]: -5%; inhibition at 500 µM [1]: 4%; inhibition at 0.8 µM [2, 20]: 80%; inhibition at 20 µM [2, 21]: 94%; inhibition at 100 µM [2, 22]: 96%; inhibition at 500 µM [2, 22]: 98%; inhibition at 100 µM [3]: 31%; inhibition at 500 µM [3]: 44%; inhibition at 0.8 µM [4, 20]: 76%; inhibition at 20 µM [4, 21]: 90%; inhibition at 100 µM ([4]; read-out: % inhibition of iodoacetamide probe labeling, Cys318, 100 micromolar, cell lysate, 1 h): 93%; inhibition at 500 µM ([4]; read-out: % inhibition of iodoacetamide probe labeling, Cys318, 500 micromolar, cell lysate, 1 h): 96%; inhibition at 100 µM [5]: 10%; inhibition at 100 µM [6]: 19%; inhibition at 500 µM [6]: 32% | COc1ccccc1-c1cccc(OC2CN(C(=O)/C(C#N)=C/C(C)C)C2)c1 [Example A8]
33 | 28 | 21 | 52 | 91 | 98 | 38 | 92 | −6 | 4 | −4 | −6 | −2 | −36 | 19 | 25 | 26 | 11 | −28 | −18 | inhibition of probe labeling, CRBN_310, Den. [18, 24]: 43%; inhibition of probe labeling, CRBN_310, Nat. [18, 25]: 54%; inhibition of probe labeling, CRBN_343, Den. [19, 24]: −5% | C=CC(=O)N1CCC(Oc2cc(C#N)cc(-c3ccccc3OC)c2)CC1 [drawing 205]
−4 | 4 | −28 | 2 | 76 | 91 | 28 | 82 | −15 | 0 | −20 | −22 | 12 | −25 | 27 | 2 | 21 | 27 | −44 | −16 | inhibition of probe labeling, CRBN_310, Den. [18, 24]: 35%; inhibition of probe labeling, CRBN_310, Nat. [18, 25]: 46%; inhibition of probe labeling, CRBN_343, Den. [19, 24]: −12% | C=CC(=O)N1CCC(Oc2cccc(-c3ccccc3OC)c2)CC1 [drawing 206]
95 | 96 | 98 | 97 |  |  |  |  |  |  |  |  |  |  |  |  |  |  |  |  | inhibition of probe labeling, CRBN_287, Den. [9]: 59%; inhibition of probe labeling, CRBN_318, Den. [10]: 53%; inhibition of probe labeling, CRBN_326, Den. [11]: −8%; inhibition of probe labeling, CRBN_205, Den. [12]: 13%; inhibition of probe labeling, CRBN_205, Nat. [12]: −23%; inhibition of probe labeling, CRBN_441, Den. [13]: −26%; inhibition of probe labeling, CRBN_219, Den. [14]: 57%; inhibition of probe labeling, CRBN_219, Nat. [14]: 40%; inhibition of probe labeling, CRBN_322, Den. [15]: 29%; inhibition of probe labeling, CRBN_322, Nat. [15]: 29%; inhibition of probe labeling, CRBN_234, Den. [16]: 45%; inhibition of probe labeling, CRBN_234, Nat. [16]: −4%; inhibition of probe labeling, CRBN_188, Den. [17]: −6%; inhibition of probe labeling, CRBN_188, Nat. [17]: −36%; inhibition of probe labeling, CRBN_310, Den. [18]: 50%; inhibition of probe labeling, CRBN_310, Nat. [18]: 2%; inhibition of probe labeling, CRBN_343, Den. [19]: −10% | C=CC(=O)N(c1ccccc1)c1ccc(Br)cc1 [reference compound]
